In the kinase profiling compilation of Christmann-Franck et al. (2016):

Key:
Conditions in all cases: compound 10.0 µM
CSNK1D (human) = CSNK1D (human) (UniProt P48730)
YES1 (human) = YES1 (human) (UniProt P07947)
PAK3 (human) = PAK3 (human) (UniProt O75914)
[1] = test system: RET (human), P07949 [V804L]
LIMK2 (human) = LIMK2 (human) (UniProt P53671)
DDR2 (human) = DDR2 (human) (UniProt Q16832)
CDK17 (human) = CDK17 (human) (UniProt Q00537)
RIPK4 (human) = RIPK4 (human) (UniProt P57078)
ULK1 (human) = ULK1 (human) (UniProt O75385)
Sequence of ULK1 (human) (O75385 whole entry, looked up): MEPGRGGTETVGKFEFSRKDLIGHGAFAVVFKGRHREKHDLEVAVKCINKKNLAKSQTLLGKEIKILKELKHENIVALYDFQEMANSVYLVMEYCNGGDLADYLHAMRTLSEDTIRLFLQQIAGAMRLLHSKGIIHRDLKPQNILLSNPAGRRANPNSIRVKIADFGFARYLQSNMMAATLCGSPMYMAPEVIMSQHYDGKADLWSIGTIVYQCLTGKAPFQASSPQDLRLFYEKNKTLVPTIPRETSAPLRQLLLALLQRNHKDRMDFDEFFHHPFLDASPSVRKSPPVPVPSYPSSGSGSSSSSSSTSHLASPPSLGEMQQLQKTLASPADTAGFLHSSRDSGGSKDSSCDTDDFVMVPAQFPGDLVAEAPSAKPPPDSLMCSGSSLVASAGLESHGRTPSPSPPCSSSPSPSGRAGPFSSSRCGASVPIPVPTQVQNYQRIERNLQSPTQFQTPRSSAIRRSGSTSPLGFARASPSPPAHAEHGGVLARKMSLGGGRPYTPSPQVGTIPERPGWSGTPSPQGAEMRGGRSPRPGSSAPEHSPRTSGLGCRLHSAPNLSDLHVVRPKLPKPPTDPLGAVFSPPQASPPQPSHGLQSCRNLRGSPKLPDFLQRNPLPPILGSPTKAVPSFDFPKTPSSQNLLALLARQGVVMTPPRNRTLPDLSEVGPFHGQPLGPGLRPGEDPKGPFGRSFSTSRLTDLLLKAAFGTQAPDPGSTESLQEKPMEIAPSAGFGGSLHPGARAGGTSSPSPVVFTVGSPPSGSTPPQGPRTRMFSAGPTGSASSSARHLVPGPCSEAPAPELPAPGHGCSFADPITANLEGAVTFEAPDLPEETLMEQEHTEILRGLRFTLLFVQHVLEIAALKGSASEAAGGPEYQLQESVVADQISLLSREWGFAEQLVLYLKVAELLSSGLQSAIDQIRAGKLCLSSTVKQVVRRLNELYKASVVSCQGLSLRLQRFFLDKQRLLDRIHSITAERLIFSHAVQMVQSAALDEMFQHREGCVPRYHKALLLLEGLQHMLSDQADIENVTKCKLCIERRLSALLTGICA

MAP4K1 (human) = MAP4K1 (human) (UniProt Q92918)
RPS6KB1 (human) = RPS6KB1 (human) (UniProt P23443)
Sequence of RPS6KB1 (human) (P23443 whole entry, looked up): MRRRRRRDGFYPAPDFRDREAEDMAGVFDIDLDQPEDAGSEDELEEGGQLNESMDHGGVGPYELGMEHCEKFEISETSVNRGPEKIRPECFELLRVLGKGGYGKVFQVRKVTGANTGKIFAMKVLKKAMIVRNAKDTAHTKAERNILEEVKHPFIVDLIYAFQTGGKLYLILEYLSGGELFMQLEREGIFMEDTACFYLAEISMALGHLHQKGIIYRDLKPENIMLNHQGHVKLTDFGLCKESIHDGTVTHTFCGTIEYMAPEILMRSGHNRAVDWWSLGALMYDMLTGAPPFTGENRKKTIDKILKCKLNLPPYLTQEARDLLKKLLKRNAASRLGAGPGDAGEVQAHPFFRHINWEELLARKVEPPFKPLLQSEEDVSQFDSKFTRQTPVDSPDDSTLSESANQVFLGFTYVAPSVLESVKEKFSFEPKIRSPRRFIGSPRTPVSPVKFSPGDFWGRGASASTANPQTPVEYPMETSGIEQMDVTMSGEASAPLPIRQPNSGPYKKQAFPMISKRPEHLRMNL

RPS6KA4 KD1 (human) = RPS6KA4 KD1 (human) (UniProt O75676)
RIPK2 (human) = RIPK2 (human) (UniProt O43353)
MAP2K7 (human) = MAP2K7 (human) (UniProt O14733)
MTOR (human) = MTOR (human) (UniProt P42345)
STK11 (human) = STK11 (human) (UniProt Q15831)
Sequence of STK11 (human) (Q15831 whole entry, looked up): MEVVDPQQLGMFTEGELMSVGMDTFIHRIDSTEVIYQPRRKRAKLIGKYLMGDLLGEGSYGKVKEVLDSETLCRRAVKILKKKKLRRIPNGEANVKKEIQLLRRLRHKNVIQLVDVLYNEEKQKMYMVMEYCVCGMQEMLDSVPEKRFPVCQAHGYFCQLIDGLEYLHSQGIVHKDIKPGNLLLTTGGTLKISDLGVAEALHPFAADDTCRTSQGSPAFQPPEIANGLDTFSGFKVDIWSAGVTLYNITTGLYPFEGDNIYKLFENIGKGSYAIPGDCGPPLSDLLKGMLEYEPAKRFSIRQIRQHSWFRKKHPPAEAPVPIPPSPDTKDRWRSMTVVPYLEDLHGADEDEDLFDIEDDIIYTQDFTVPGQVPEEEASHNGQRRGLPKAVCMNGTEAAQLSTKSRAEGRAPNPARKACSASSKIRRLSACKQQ

VRK2 (human) = VRK2 (human) (UniProt Q86Y07)
Sequence of VRK2 (human) (Q86Y07 whole entry, looked up): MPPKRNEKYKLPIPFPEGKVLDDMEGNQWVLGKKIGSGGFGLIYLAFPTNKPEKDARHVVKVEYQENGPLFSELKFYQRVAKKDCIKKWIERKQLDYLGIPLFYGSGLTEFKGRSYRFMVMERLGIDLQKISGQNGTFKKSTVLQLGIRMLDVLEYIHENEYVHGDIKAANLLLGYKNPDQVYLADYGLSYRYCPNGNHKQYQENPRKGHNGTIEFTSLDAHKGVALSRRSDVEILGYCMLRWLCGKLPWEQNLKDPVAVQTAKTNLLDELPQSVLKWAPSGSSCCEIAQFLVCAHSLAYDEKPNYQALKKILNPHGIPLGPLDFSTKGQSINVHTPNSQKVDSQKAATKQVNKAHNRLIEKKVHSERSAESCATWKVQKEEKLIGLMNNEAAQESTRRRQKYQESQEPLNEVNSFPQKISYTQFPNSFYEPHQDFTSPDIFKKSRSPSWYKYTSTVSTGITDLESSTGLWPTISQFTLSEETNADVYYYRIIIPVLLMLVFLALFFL

CDK4 CCND1 (human) = CDK4 CCND1 (human) (UniProt P11802+P24385)
NTRK1 (human) = NTRK1 (human) (UniProt P04629)
Sequence of NTRK1 (human) (P04629 whole entry, looked up): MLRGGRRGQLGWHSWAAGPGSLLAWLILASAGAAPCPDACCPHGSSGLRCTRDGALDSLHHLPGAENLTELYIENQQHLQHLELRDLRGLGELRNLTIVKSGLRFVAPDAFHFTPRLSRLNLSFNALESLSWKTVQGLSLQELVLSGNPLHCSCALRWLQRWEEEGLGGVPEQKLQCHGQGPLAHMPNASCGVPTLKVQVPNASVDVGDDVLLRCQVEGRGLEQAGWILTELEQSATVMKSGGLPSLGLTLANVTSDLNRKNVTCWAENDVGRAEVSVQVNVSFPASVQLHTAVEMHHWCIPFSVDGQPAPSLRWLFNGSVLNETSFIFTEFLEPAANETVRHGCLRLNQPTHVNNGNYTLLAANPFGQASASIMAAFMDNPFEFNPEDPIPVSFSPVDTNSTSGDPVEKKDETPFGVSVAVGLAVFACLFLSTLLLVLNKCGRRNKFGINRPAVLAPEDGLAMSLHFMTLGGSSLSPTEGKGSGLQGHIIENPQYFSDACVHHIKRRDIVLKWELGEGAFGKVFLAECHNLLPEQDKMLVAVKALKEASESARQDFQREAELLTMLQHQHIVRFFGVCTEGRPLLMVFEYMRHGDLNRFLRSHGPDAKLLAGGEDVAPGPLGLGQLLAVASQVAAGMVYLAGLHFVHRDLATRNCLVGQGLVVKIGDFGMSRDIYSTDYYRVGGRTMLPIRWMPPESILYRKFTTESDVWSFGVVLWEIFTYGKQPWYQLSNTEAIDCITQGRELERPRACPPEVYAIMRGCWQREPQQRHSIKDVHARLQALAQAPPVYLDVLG

[2] = test system: FLT3 (human), P36888 [R834Q]
WEE1 (human) = WEE1 (human) (UniProt P30291)
HIPK1 (human) = HIPK1 (human) (UniProt Q86Z02)
MAPK10 (human) = MAPK10 (human) (UniProt P53779)
PDPK1 (human) = PDPK1 (human) (UniProt O15530)
CDK5 (human) = CDK5 (human) (UniProt Q00535)
TEK (human) = TEK (human) (UniProt Q02763)
BRSK2 (human) = BRSK2 (human) (UniProt Q8IWQ3)
PI4KB (human) = PI4KB (human) (UniProt Q9UBF8)
MAP3K3 (human) = MAP3K3 (human) (UniProt Q99759)
PRKAA2 (human) = PRKAA2 (human) (UniProt P54646)
HIPK3 (human) = HIPK3 (human) (UniProt Q9H422)
MAP2K2 (human) = MAP2K2 (human) (UniProt P36507)
Sequence of MAP2K2 (human) (P36507 whole entry, looked up): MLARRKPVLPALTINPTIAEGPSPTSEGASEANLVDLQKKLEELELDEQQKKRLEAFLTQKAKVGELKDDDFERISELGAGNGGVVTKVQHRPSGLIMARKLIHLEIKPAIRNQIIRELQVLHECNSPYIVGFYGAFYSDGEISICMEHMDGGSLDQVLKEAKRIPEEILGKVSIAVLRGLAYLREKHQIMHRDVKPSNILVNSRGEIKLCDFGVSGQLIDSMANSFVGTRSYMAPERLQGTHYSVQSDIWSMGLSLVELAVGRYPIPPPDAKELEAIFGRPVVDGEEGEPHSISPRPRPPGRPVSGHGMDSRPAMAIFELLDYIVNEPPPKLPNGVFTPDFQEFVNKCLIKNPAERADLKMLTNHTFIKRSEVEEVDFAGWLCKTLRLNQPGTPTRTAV

GRK7 (human) = GRK7 (human) (UniProt Q8WTQ7)
SIK3 (human) = SIK3 (human) (UniProt Q9Y2K2)
Sequence of SIK3 (human) (Q9Y2K2 whole entry, looked up): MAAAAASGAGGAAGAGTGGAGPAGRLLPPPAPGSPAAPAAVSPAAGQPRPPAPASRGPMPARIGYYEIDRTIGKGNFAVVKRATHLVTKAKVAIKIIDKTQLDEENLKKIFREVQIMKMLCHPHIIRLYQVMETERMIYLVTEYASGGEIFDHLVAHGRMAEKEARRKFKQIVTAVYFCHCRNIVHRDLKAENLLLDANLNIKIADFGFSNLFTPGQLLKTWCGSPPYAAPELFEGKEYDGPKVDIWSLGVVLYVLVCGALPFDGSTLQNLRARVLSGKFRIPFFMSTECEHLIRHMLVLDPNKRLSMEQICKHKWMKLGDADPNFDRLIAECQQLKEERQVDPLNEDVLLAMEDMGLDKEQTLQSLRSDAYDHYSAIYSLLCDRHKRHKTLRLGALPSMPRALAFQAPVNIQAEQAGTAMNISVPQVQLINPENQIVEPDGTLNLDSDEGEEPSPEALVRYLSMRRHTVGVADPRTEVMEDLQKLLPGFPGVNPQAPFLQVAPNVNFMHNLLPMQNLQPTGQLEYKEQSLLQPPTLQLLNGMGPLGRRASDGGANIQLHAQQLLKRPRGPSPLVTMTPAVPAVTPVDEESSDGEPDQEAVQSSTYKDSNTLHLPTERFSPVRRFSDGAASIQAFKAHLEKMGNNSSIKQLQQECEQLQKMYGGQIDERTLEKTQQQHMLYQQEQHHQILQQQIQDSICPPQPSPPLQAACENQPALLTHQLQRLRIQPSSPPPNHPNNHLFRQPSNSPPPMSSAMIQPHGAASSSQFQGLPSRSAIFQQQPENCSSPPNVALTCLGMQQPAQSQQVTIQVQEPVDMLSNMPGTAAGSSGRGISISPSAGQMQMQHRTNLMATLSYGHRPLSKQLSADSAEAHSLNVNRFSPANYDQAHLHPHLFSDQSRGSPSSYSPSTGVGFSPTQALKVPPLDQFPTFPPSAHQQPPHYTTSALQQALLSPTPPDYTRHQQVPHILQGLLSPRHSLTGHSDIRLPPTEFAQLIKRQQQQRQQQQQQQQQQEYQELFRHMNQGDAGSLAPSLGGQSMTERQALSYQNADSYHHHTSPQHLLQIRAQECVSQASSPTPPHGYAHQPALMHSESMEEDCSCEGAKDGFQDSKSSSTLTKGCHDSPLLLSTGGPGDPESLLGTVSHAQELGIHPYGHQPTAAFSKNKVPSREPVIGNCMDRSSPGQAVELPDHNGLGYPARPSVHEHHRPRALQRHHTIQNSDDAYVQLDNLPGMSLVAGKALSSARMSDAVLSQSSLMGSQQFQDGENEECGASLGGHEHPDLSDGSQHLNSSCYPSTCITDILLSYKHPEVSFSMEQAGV

STK39 (human) = STK39 (human) (UniProt Q9UEW8)
AURKA (human) = AURKA (human) (UniProt O14965)
TNIK (human) = TNIK (human) (UniProt Q9UKE5)
TESK1 (human) = TESK1 (human) (UniProt Q15569)
PRKCQ (human) = PRKCQ (human) (UniProt Q04759)
CRK2 (P.falciparum) = CRK2 (P.falciparum) (UniProt P61075)
[3] = target: JAK1 JH1 catalytic (human) (UniProt P23458)

Compound `CNC(=O)c1cc(Oc2ccc(NC(=O)Nc3ccc(Cl)c(C(F)(F)F)c3)cc2)cc[n+]1[O-]` has a per cent of control (CSNK1D (human)) of 91%, a per cent of control (YES1 (human)) of 68% and a per cent of control (PAK3 (human)) of 43%. For the same compound, the per cent of control [1] was 0%, the per cent of control (LIMK2 (human)) was 59% and the per cent of control (DDR2 (human)) was 19%. The per cent of control (CDK17 (human)) was 7.7%, the per cent of control (RIPK4 (human)) was 100% and the per cent of control (ULK1 (human)) was 99%. For the same compound, the per cent of control (MAP4K1 (human)) was 6%, the per cent of control (RPS6KB1 (human)) was 42% and the per cent of control (RPS6KA4 KD1 (human)) was 13%. For the same compound, the per cent of control (RIPK2 (human)) was 9.8%, the per cent of control (MAP2K7 (human)) was 63% and the per cent of control (MTOR (human)) was 100%. It also gave a per cent of control (STK11 (human)) of 100%, a per cent of control (VRK2 (human)) of 100% and a per cent of control (CDK4 CCND1 (human)) of 74%. The per cent of control (NTRK1 (human)) was 4%, the per cent of control [2] was 9% and the per cent of control (WEE1 (human)) was 100%. For the same compound, the per cent of control (HIPK1 (human)) was 44%, the per cent of control (MAPK10 (human)) was 4.4% and the per cent of control (PDPK1 (human)) was 94%. For the same compound, the per cent of control (CDK5 (human)) was 12%, the per cent of control (TEK (human)) was 3.5% and the per cent of control (BRSK2 (human)) was 100%. For the same compound, the per cent of control (PI4KB (human)) was 100%, the per cent of control (MAP3K3 (human)) was 96% and the per cent of control (PRKAA2 (human)) was 49%. For the same compound, the per cent of control (HIPK3 (human)) was 5.1%, the per cent of control (MAP2K2 (human)) was 84% and the per cent of control (GRK7 (human)) was 100%. It also gave a per cent of control (SIK3 (human)) of 100%, a per cent of control (STK39 (human)) of 87% and a per cent of control (AURKA (human)) of 26%. The per cent of control (TNIK (human)) was 3.9%, the per cent of control (TESK1 (human)) was 55% and the per cent of control (PRKCQ (human)) was 80%. It also gave a per cent of control (CRK2 (P.falciparum)) of 100% and a per cent of control [3] of 50%.
`CNC(=O)c1cc(Oc2ccc(NC(=O)Nc3ccc(Cl)c(C(F)(F)F)c3)cc2)ccn1` was tested, and the per cent of control (CSNK1D (human)) was 84%, the per cent of control (YES1 (human)) was 41% and the per cent of control (PAK3 (human)) was 56%. It also gave a per cent of control [1] of 0%, a per cent of control (LIMK2 (human)) of 53% and a per cent of control (DDR2 (human)) of 13%. The per cent of control (CDK17 (human)) was 13%, the per cent of control (RIPK4 (human)) was 100% and the per cent of control (ULK1 (human)) was 89%. For the same compound, the per cent of control (MAP4K1 (human)) was 19%, the per cent of control (RPS6KB1 (human)) was 46% and the per cent of control (RPS6KA4 KD1 (human)) was 81%. For the same compound, the per cent of control (RIPK2 (human)) was 5.3%, the per cent of control (MAP2K7 (human)) was 92% and the per cent of control (MTOR (human)) was 100%. It also gave a per cent of control (STK11 (human)) of 98%, a per cent of control (VRK2 (human)) of 100% and a per cent of control (CDK4 CCND1 (human)) of 66%. It also gave a per cent of control (NTRK1 (human)) of 22%, a per cent of control [2] of 12% and a per cent of control (WEE1 (human)) of 100%. For the same compound, the per cent of control (HIPK1 (human)) was 17%, the per cent of control (MAPK10 (human)) was 90% and the per cent of control (PDPK1 (human)) was 94%. It also gave a per cent of control (CDK5 (human)) of 22%, a per cent of control (TEK (human)) of 2.8% and a per cent of control (BRSK2 (human)) of 98%. The per cent of control (PI4KB (human)) was 100%, the per cent of control (MAP3K3 (human)) was 97% and the per cent of control (PRKAA2 (human)) was 60%. The per cent of control (HIPK3 (human)) was 1.2%, the per cent of control (MAP2K2 (human)) was 88% and the per cent of control (GRK7 (human)) was 100%. It also gave a per cent of control (SIK3 (human)) of 100%, a per cent of control (STK39 (human)) of 76% and a per cent of control (AURKA (human)) of 83%. The per cent of control (TNIK (human)) was 21%, the per cent of control (TESK1 (human)) was 72% and the per cent of control (PRKCQ (human)) was 76%. The per cent of control (CRK2 (P.falciparum)) was 59% and the per cent of control [3] was 42%.
